This passage reports AC50 results from PubChem BioAssay AID463203 (Broad Institute, 2010).

SMILES strings stand for the structures. The source made the active and inactive calls.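 Rule for the calls: active = more than half of replicate measurements showing over 20% loss of kinase signal relative to plate controls; inconclusive = some but at most half of replicates over 20% loss; inactive = no replicate over 20% signal loss.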

In the test the target is Glycogen synthase kinase-3 alpha (Homo sapiens) (UniProt P49840). Briefly: concentration-response blocking of human GSK3A – biochemical, luminescence, cell-free homogeneous, retest, dose response (AID 463203). Particulars: GSK-3 alpha enzyme, ADP-Glo luminescence, 60 min. Background: ADP-Glo first removes unused ATP, then detects ADP through luciferase.
Chain of Glycogen synthase kinase-3 alpha (Homo sapiens) (P49840 whole entry, looked up): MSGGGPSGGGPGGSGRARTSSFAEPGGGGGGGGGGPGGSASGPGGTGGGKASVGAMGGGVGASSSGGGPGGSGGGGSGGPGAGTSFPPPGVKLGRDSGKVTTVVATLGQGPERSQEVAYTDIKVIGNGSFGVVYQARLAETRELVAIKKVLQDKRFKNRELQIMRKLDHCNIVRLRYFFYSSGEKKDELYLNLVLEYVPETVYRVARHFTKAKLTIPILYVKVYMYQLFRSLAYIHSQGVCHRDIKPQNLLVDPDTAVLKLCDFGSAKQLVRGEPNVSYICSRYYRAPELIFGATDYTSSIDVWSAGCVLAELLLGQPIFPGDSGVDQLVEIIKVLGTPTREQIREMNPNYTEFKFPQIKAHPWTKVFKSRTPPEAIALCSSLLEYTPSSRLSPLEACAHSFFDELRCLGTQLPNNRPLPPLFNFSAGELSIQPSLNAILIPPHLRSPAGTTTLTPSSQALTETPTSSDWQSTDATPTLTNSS
Usually AC50 stands for the concentration giving half of the maximal activity seen. As for `NC(=O)c1cc([N+](=O)[O-])ccc1NCc1cccc(N)c1`, the AC50 is 15.6 µM.

As for `Cc1ccc(C(=O)c2cc(C)sc2NC(=O)CN2CCN(C(=O)c3ccco3)CC2)cc1`, the AC50 is > 30 µM (inactive).

Consider `COc1cc(-c2[nH]nc3c2C(c2ccoc2)C(C#N)=C(N)O3)cc(OC)c1OC` (stereo unspecified), for which the concentration at half-maximal activity (AC50) is 26.1 µM.

As to `CCn1c(C)nc2cc(-c3nc4n(n3)Cc3ccccc3-4)ccc21`, the AC50 was 16.1 µM.

With `COc1ccc(S(=O)(=O)NCc2ccc(C(=O)N3CCC4(CC3)OCCO4)cc2)cc1`, the AC50 was > 30 µM (inactive).

`CC(=O)c1c(O)ccc2c(-c3ccccc3)cc(=O)oc12`: the AC50 was > 30 µM (inactive).

As for `CCc1ccc(C2C3=C(CC(C)(C)CC3=O)Nc3c2c(=O)[nH]c2nc(C)nn32)cc1` (stereo unspecified), the AC50 was > 30 µM (inactive).

Regarding `CCN(CC)CCCNc1nc(N)c([N+](=O)[O-])c(N2CCCCCC2)n1`, the AC50 is 29.6 µM.

In the case of `Cc1nc(N2CCOCC2)nc(N2CCCCC2)c1[N+](=O)[O-]`, the AC50 is > 30 µM (inactive).

Take `CN(C(=O)CN1CC=C(c2ccccc2)CC1)c1c(N)n(Cc2ccccc2)c(=O)[nH]c1=O`: the AC50 is > 30 µM (inactive).

With `NC(=O)c1c(NC(=O)CN2C(=O)NC(Cc3ccccc3)C2=O)sc2c1CCC2` (stereo unspecified), the AC50 is 20.3 µM.

As for `CSc1nc2sc3c(c2c(=O)[nH]1)CCC(C)C3` (stereo unspecified), the AC50 was > 30 µM (inactive).

With `Nc1nnc(SCC(=O)Nc2sc3c(c2C(=O)c2ccccc2)CCCC3)s1`, the AC50 was > 30 µM (inactive).

Regarding `O=c1[nH]nc(SCc2ccccc2Cl)n1-c1ccc2c(c1)OCCO2`, the AC50 was 7.11 µM.

For the molecule `O=C(N/N=C/c1ccc(O)c(O)c1)C1CC1`, the AC50 is > 30 µM (inactive).

As to `CCOc1ccc2nc(NC(=O)CSc3ccccc3)sc2c1`, the AC50 is > 30 µM (inactive).

For the molecule `CCOC(=O)c1cc(-c2ccc(F)cc2)n(CC(=O)NCc2ccccn2)c1C`, the AC50 was > 30 µM (inactive).

As to `CC(C)OC(=O)CSc1nc(N)c(C#N)c(-c2ccco2)c1C#N`, the AC50 is > 30 µM (inactive).

For the molecule `CCN1C(=O)C(=C/C=C/c2ccco2)C(=O)N(CC)C1=S`, the AC50 was > 30 µM (inactive).

For `Cc1ccc2c(c1N)C(=O)c1ccccc1C2=O`, the AC50 was > 30 µM (inactive).

Consider `O=C(NCC1CCN(Cc2ccccc2Cl)CC1)Nc1cccc(Cl)c1`, for which the AC50 was > 30 µM (inactive).

As for `COc1ccc(Nc2nc(-c3ccccc3)cs2)cc1`, the AC50 was > 30 µM (inactive).

`COc1cccc(NC(=O)c2nnn(Cc3ccc(Br)cc3F)c2N)c1`: the AC50 is 11.1 µM.

Turning to `CC(=O)Nc1ccc(NC(=O)c2cc(-n3cnnc3)ccc2Cl)cc1`, the AC50 is > 30 µM (inactive).

In the case of `Oc1ccc(-c2nc3ncccn3c2Nc2ccc3c(c2)OCCO3)cc1`, the AC50 was > 30 µM (inactive).

For `CC1(C)CC(=O)C(C2c3ccccc3S(=O)(=O)c3ccccc32)C(=O)C1`, the AC50 is > 30 µM (inactive).

Consider `O=C(Nc1ccccc1)c1ccc(CSc2ncccn2)cc1`, for which the AC50 is > 30 µM (inactive).

As to `CCOC(=O)c1nnn(-c2nonc2N)c1-c1cccc2ccccc12`, the AC50 was 27.9 µM.

On to `Nc1ncc(-c2ccccc2)c(-c2ccc(OCc3ccccc3)cc2O)n1`, for which the AC50 was > 30 µM (inactive).

For the molecule `COc1ccc(COC(=O)C2=C(C)NC(=O)NC2c2cccc(Br)c2)cc1` (stereo unspecified), the concentration at half-maximal activity (AC50) was 16.9 µM.

Regarding `Cc1cccc(Nc2ncccc2C(=O)O)c1C`, the AC50 was > 30 µM (inactive).

For `CC(C)(C)c1ccc(/C=C2\Oc3cc(O)ccc3C2=O)cc1`, the AC50 is > 30 µM (inactive).

For the molecule `COc1ccc(C2CC(=O)N3CN(c4ccccc4F)CSC3=C2C#N)cc1OC` (stereo unspecified), the AC50 was > 30 µM (inactive).

In the case of `Nc1c(C(=O)NCc2ccco2)c2nc3ccccc3nc2n1CCN1CCOCC1`, the AC50 is > 30 µM (inactive).

In the case of `CCOC(=O)c1cc(C)[nH]c1C`, the AC50 was > 30 µM (inactive).

For `Cc1ccc(C(=O)Nc2nnc(C)s2)cc1`, the AC50 is > 30 µM (inactive).

With `Oc1ccc2cccnc2c1`, the AC50 was > 30 µM (inactive).

Regarding `CCOC(=O)c1ccc(N2CSC3=C(C#N)C(c4cccs4)CC(=O)N3C2)cc1` (stereo unspecified), the AC50 was > 30 µM (inactive).

Consider `COc1ccccc1N1CC(C(=O)Nc2nc(C)cs2)CC1=O` (stereo unspecified), for which the AC50 was > 30 µM (inactive).

`Cn1cc([N+](=O)[O-])c(C(=O)Nc2cnn(Cc3ccc(F)cc3)c2)n1`: the AC50 is > 30 µM (inactive).

Take `Clc1cccc(/C=N/Nc2ncnc3ccccc23)c1`: the AC50 is > 30 µM (inactive).

On to `CCOc1ccc2ncc(S(=O)(=O)c3ccccc3)c(N3CCN(c4ccccc4)CC3)c2c1`, for which the AC50 is > 30 µM (inactive).

On to `C/C(CC(=O)N(C(C)C)C(C)C)=N\NC(=O)COc1ccc(Cl)cc1Cl`, for which the AC50 was > 30 µM (inactive).

In the case of `Cc1cc(O)c(Oc2cc(C)cc(O)c2O)c(O)c1`, the AC50 was > 30 µM (inactive).

Consider `Cc1cc(=O)[nH]c2ccccc12`, for which the AC50 was > 30 µM (inactive).

Take `COc1ccc(/C=C2\Oc3cc(OCC(=O)N4CC(O)C[C@H]4C(=O)O)ccc3C2=O)c(OC)c1OC` (stereo partly specified): the AC50 is > 30 µM (inactive).

Take `C=CCN=C1NN=C(c2ccc3c(c2)OCCO3)CS1`: the AC50 was > 30 µM (inactive).

As to `Cc1ccc(S(=O)(=O)CCSc2n[nH]c(=O)n2-c2ccccc2)cc1`, the AC50 is 11.8 µM.

For the molecule `Cc1cccc(C(=O)Nc2nccs2)c1[N+](=O)[O-]`, the AC50 was > 30 µM (inactive).

As for `CCOc1cccc(-c2c(C(=O)N/N=C/c3ccco3)nnn2-c2nonc2N)c1`, the concentration at half-maximal activity (AC50) was 10.5 µM.

As for `O=C(Cn1c(NCCO)nc2ccccc21)c1ccc([N+](=O)[O-])cc1`, the AC50 was > 30 µM (inactive).

As to `COC(=O)c1cn(C(=O)c2ccccc2F)nc1N`, the AC50 was > 30 µM (inactive).

In the case of `COc1cc(C(=O)NCC(=O)N/N=C(C)\C=C\c2ccccc2)cc(OC)c1OC`, the AC50 is > 30 µM (inactive).

With `O=C1C2C3c4ccccc4C(c4ccccc43)C2C(=O)N1Cc1cccnc1` (stereo unspecified), the AC50 is > 30 µM (inactive).

`CN1CCc2nc3sc(C#N)c(N)c3c(-c3cccs3)c2C1`: the half-maximal activity concentration (AC50) is 0.675 µM.

Regarding `N#Cc1c(Nc2ccccc2)c(C=NCCN2CCOCC2)c[nH]c1=O`, the AC50 was > 30 µM (inactive).

`Brc1ccc(C2=Nn3c(nnc3-c3cccnc3)SC2)s1`: the AC50 was > 30 µM (inactive).

On to `CCN1CCN(c2nc(N(C)c3ccccc3)nc(N)c2[N+](=O)[O-])CC1`, for which the AC50 was > 30 µM (inactive).

With `CC(C)CNc1cc(N2CCCC2)ccc1[N+](=O)[O-]`, the AC50 is > 30 µM (inactive).

`COc1ccc2ccccc2c1/C=N/NC(=O)c1sc(N)c(C#N)c1C`: the concentration at half-maximal activity (AC50) is 25.3 µM.

For `CC(=O)C(Sc1ccc2nnc(-c3ccc(C)cc3)n2n1)C(C)=O`, the AC50 was > 30 µM (inactive).

Consider `CN1/C(=C\C=[N+](C)c2ccccc2)C(C)(C)c2ccccc21`, for which the AC50 was > 30 µM (inactive).

`Cc1cc(N2CCN(c3ccccc3)CC2)n2nnnc2n1`: the AC50 is > 30 µM (inactive).

On to `CCOC(=O)c1cccc(NC(=O)C2CCCN2S(=O)(=O)c2cccc3cccnc23)c1` (stereo unspecified), for which the AC50 is 29.5 µM.

With `N#Cc1ccccc1Cn1cc(/C=N/Nc2ccc([N+](=O)[O-])cn2)c2ccccc21`, the AC50 was > 30 µM (inactive).

In the case of `Cc1cc(N2CCN(c3ccccc3)CC2)n2ncnc2n1`, the AC50 is > 30 µM (inactive).

Turning to `Cc1sc2ncnc(NCc3ccco3)c2c1C`, the AC50 was > 30 µM (inactive).

For the molecule `CN(C(=O)/C=C/c1ccc2c(c1)OCO2)c1ccccc1`, the AC50 is 6.73 µM.

Take `Nc1nonc1-n1nnc(C(=O)N/N=C/c2cccnc2)c1-c1cccs1`: the AC50 was 1.03 µM.

As to `CCOC(=O)N1CCc2c(sc3nc(SC(C)C)n(N)c(=O)c23)C1`, the AC50 was > 30 µM (inactive).

For the molecule `CCC(=NCCCn1ccnc1)c1c(O)n(-c2ccccc2)c(=O)[nH]c1=O`, the concentration at half-maximal activity (AC50) was 27.8 µM.

For `COc1ccc(-n2c(C)c([N+](=O)[O-])c3ccc(O)c(CN(C)C)c32)cc1`, the AC50 was 5.94 µM.

For the molecule `O=c1[nH]c2c(s1)C(c1cccnc1)C1C3CCC(C3)C1S2` (stereo unspecified), the AC50 was 8.66 µM.

Regarding `CC(=O)Nc1ncc(Cc2cccc(Cl)c2Cl)s1`, the AC50 is > 30 µM (inactive).

With `CCc1cccc(NC(=O)C2CCN(c3ncnc4sc(C)c(C)c34)CC2)c1`, the AC50 is > 30 µM (inactive).

With `COc1cccc(C2C(C(=O)OC(C)C)=C(C)Nc3ncnn32)c1` (stereo unspecified), the AC50 is 15.2 µM.

Turning to `NC(=O)c1ccc(N=C2C(=O)Nc3ccc([N+](=O)[O-])cc32)cc1`, the AC50 was > 30 µM (inactive).

For the molecule `COC(=O)/C=C1/S/C(=N/NC(=O)c2ccccc2OC)NC1=O`, the AC50 was > 30 µM (inactive).

Take `COc1c(/C=C2\SC(=Nc3ccccc3Cl)NC2=O)cccc1[N+](=O)[O-]`: the AC50 was > 30 µM (inactive).

For the molecule `COc1ccc(NC(=O)CNc2cccc(S(=O)(=O)N3CCCCCC3)c2)c([N+](=O)[O-])c1`, the AC50 was > 30 µM (inactive).

`Cc1c(C(=O)OCCOC(C)C)[nH]c2c1C(=O)CC(C)(C)C2`: the AC50 is 25.4 µM.

Turning to `Nc1c(C(=O)O)cnc2c(-c3ccc(Cl)cc3)cnn12`, the concentration at half-maximal activity (AC50) is 15.8 µM.

As for `Cc1ccc(/C=N/NC(=O)c2nnn(-c3nonc3N)c2-c2cccs2)cc1`, the AC50 was 1.04 µM.

In the case of `Cc1ccc(S(=O)(=O)c2c(C(=O)c3ccccc3)cnc3cc4c(cc23)OCCO4)cc1`, the AC50 was > 30 µM (inactive).

For the molecule `CCN1/C(=C/C(C)=O)Sc2ccc(OC)cc21`, the AC50 was 16.5 µM.

As to `O=c1oc2cc(O)ccc2c2ccccc12`, the AC50 was > 30 µM (inactive).

As to `COc1ccccc1Nc1ccc(S(=O)(=O)N2CCCCC2)cc1[N+](=O)[O-]`, the AC50 is > 30 µM (inactive).

As to `COc1ccc(/C=C(/NC(=O)c2ccc([N+](=O)[O-])cc2)C(=O)NC(C)(C)C)cc1`, the AC50 is > 30 µM (inactive).

Consider `Cc1cc(C)c(/C=N/NC(=O)c2nnn(-c3nonc3N)c2CN2CCC(C)CC2)c(C)c1`, for which the AC50 is > 30 µM (inactive).

As to `COc1ccc(S(=O)(=O)NC(C)C(=O)O)cc1` (stereo unspecified), the AC50 is > 30 µM (inactive).

With `CNC(=O)NCC12CC3CC(CC(C3)C1)C2`, the AC50 was > 30 µM (inactive).
